Laboratory results from patent publication US20260232714A1, “COMPOSITION CONTAINING NICOTINAMIDE MONONUCLEOTIDE” (MEIJI HOLDINGS CO., LTD., priority 2023, published 2026).
Entries after “also recorded” stand apart in the source; their conditions may differ.

Test: Test 1: blood NMN concentration after oral or sublingual administration of NMN (plasma, LC-MS/MS)
Type: in vivo, human
Experimental: Tablets were used for oral administration. The content of NMN was 500 mg.
Powder was used for sublingual administration. The content of NMN was 250 mg.
One adult with no abnormal health conditions participated in the test. The test was conducted over two separate days.
Then, 250 mg of NMN (powder) was placed under the tongue, so that the powder was dissolved with saliva, and the test subject was maintained in that state. After 1 minute, the test subject spit out all NMN from the mouth, and blood was collected from the fingertip 5, 10, 15, and 30 minutes after the NMN was placed under the tongue.
NMN concentration was determined by LC-MS/MS. Details of the measurements are described below.
• Liquid A: 5 mM Ammonium formate aqueous solution • Liquid B: Acetonitrile

[1] = sublingual administration, in some test subjects

- maximum blood concentration [1]: ≥ 5 µg/mL
- time to reach the maximum blood concentration after administration [1]: about 5 minutes
Structure (SMILES): NC(=O)c1ccc[n+]([C@@H]2O[C@H](COP(=O)([O-])O)[C@@H](O)[C@H]2O)c1 [NMN, nicotinamide mononucleotide]
- blood NMN concentration compared with that observed before NMN ingestion (0 minute) (oral administration, one tablet 500 mg NMN with water, one adult, 5-60 minutes, plasma): virtually unchanged; also recorded: does not increase; also recorded: almost unchanged
